# From ChEMBL document CHEMBL3885881, “DrugMatrix”
# Species: Rattus norvegicus
# Assay: DrugMatrix - Regimen: Daily Repeat
# Type: toxicity, organism-based, Sprague-Dawley
# Parameters: regimen Daily Repeat, gender Male, age 6-8 weeks
# Details: in vivo, sc, route subcutaneous, […]; for ABSOLUTE BASOPHIL / ABSOLUTE EOSINOPHIL / ABSOLUTE LYMPHOCYTE / ABSOLUTE MONOCYTE / ABSOLUTE SEGMENTED NEUTROPHIL / BASOPHIL / EOSINOPHIL / ERYTHROCYTE COUNT / HEMATOCRIT / HEMOGLOBIN / LEUKOCYTE COUNT / LYMPHOCYTE / MEAN CORPUSCULAR HEMOGLOBIN / MEAN CORPUSCULAR HEMOGLOBIN CONCENTRATION / MEAN CORPUSCULAR VOLUME / MONOCYTE / NEUTROPHIL / NUCLEATED RED BLOOD CELLS / PLATELET COUNT: tissue Blood; for ALANINE AMINOTRANSFERASE / ALBUMIN / ALKALINE PHOSPHATASE / ASPARTATE AMINOTRANSFERASE / BLOOD UREA NITROGEN / CARBON DIOXIDE / CHLORIDE / CHOLESTEROL / CREATINE PHOSPHOKINASE / CREATININE / GLUCOSE / LACTATE DEHYDROGENASE / LIPASE / PHOSPHORUS / POTASSIUM / SODIUM / TOTAL BILIRUBIN / TOTAL PROTEIN / URIC ACID: tissue Plasma
# [1] = 0 mg/kg, 72 h, dose level Control, time 3 day
# [2] = 0 mg/kg, 120 h, dose level Control, time 5 day
# [3] = 50 mg/kg, 72 h, dose level Low, time 3 day
compound,measurement,setting,value
CC(C)(c1ccc(O)cc1)c1ccc(O)cc1 [BISPHENOL A],ABSOLUTE BASOPHIL,[1],0 CELLS/uL
same,ABSOLUTE EOSINOPHIL,[1],0 CELLS/uL
same,ABSOLUTE LYMPHOCYTE,[1],9782.33 CELLS/uL
same,ABSOLUTE MONOCYTE,[1],114.67 CELLS/uL
same,ABSOLUTE SEGMENTED NEUTROPHIL,[1],753 CELLS/uL
same,BASOPHIL,[1],0%
same,EOSINOPHIL,[1],0%
same,ERYTHROCYTE COUNT,[1],5.14 x10E6/uL
same,HEMATOCRIT,[1],32.12%
same,HEMOGLOBIN,[1],13.13 G/DL
same,LEUKOCYTE COUNT,[1],10.65 x10E3/uL
same,LYMPHOCYTE,[1],91.83%
same,MEAN CORPUSCULAR HEMOGLOBIN,[1],25.83 pg
same,MEAN CORPUSCULAR HEMOGLOBIN CONCENTRATION,[1],41.28 G/DL
same,MEAN CORPUSCULAR VOLUME,[1],62.43 fL
same,MONOCYTE,[1],1%
same,NEUTROPHIL,[1],7.17%
same,NUCLEATED RED BLOOD CELLS,[1],0.17 /100WBC
same,PLATELET COUNT,[1],657.83 x10E3/uL
same,ALANINE AMINOTRANSFERASE,[1],60.33 u/L
same,ALBUMIN,[1],3.83 G/DL
same,ALKALINE PHOSPHATASE,[1],366.33 u/L
same,ASPARTATE AMINOTRANSFERASE,[1],104.5 u/L
same,BLOOD UREA NITROGEN,[1],12.33 mg/dL
same,CARBON DIOXIDE,[1],23.17 mmol/L
same,CHLORIDE,[1],96.67 MEQ/L
same,CHOLESTEROL,[1],73.17 mg/dL
same,CREATINE PHOSPHOKINASE,[1],545.83 u/L
same,CREATININE,[1],0.26 mg/dL
same,GLUCOSE,[1],144.33 mg/dL
same,LACTATE DEHYDROGENASE,[1],147.5 u/L
same,LIPASE,[1],9.33 u/L
same,PHOSPHORUS,[1],10.83 mg/dL
same,POTASSIUM,[1],5.68 MEQ/L
same,SODIUM,[1],138.83 MEQ/L
same,TOTAL BILIRUBIN,[1],0.17 mg/dL
same,TOTAL PROTEIN,[1],5.42 G/DL
same,URIC ACID,[1],0.65 mg/dL
same,ABSOLUTE BASOPHIL,[2],0 CELLS/uL
same,ABSOLUTE EOSINOPHIL,[2],43.33 CELLS/uL
same,ABSOLUTE LYMPHOCYTE,[2],12883 CELLS/uL
same,ABSOLUTE MONOCYTE,[2],166.83 CELLS/uL
same,ABSOLUTE SEGMENTED NEUTROPHIL,[2],1290.17 CELLS/uL
same,BASOPHIL,[2],0%
same,EOSINOPHIL,[2],0.33%
same,ERYTHROCYTE COUNT,[2],5.79 x10E6/uL
same,HEMATOCRIT,[2],36.37%
same,HEMOGLOBIN,[2],14.17 G/DL
same,LEUKOCYTE COUNT,[2],14.38 x10E3/uL
same,LYMPHOCYTE,[2],89.17%
same,MEAN CORPUSCULAR HEMOGLOBIN,[2],24.48 pg
same,MEAN CORPUSCULAR HEMOGLOBIN CONCENTRATION,[2],38.98 G/DL
same,MEAN CORPUSCULAR VOLUME,[2],62.83 fL
same,MONOCYTE,[2],1.17%
same,NEUTROPHIL,[2],9.33%
same,NUCLEATED RED BLOOD CELLS,[2],0.5 /100WBC
same,PLATELET COUNT,[2],1267.33 x10E3/uL
same,ALANINE AMINOTRANSFERASE,[2],53.5 u/L
same,ALBUMIN,[2],3.82 G/DL
same,ALKALINE PHOSPHATASE,[2],342.33 u/L
same,ASPARTATE AMINOTRANSFERASE,[2],83.67 u/L
same,BLOOD UREA NITROGEN,[2],13.17 mg/dL
same,CARBON DIOXIDE,[2],28.17 mmol/L
same,CHLORIDE,[2],101.5 MEQ/L
same,CHOLESTEROL,[2],70.83 mg/dL
same,CREATINE PHOSPHOKINASE,[2],656.67 u/L
same,CREATININE,[2],0.17 mg/dL
same,GLUCOSE,[2],171.33 mg/dL
same,LACTATE DEHYDROGENASE,[2],169 u/L
same,LIPASE,[2],9.17 u/L
same,PHOSPHORUS,[2],12.88 mg/dL
same,POTASSIUM,[2],6.54 MEQ/L
same,SODIUM,[2],141.2 MEQ/L
same,TOTAL BILIRUBIN,[2],0.18 mg/dL
same,TOTAL PROTEIN,[2],5.68 G/DL
same,URIC ACID,[2],2.02 mg/dL
same,ABSOLUTE BASOPHIL,[3],0 CELLS/uL
same,ABSOLUTE EOSINOPHIL,[3],47.33 CELLS/uL
same,ABSOLUTE LYMPHOCYTE,[3],13197 CELLS/uL
same,ABSOLUTE MONOCYTE,[3],0 CELLS/uL
same,ABSOLUTE SEGMENTED NEUTROPHIL,[3],655.67 CELLS/uL
same,BASOPHIL,[3],0%
same,EOSINOPHIL,[3],0.33%
same,ERYTHROCYTE COUNT,[3],5.26 x10E6/uL
same,HEMATOCRIT,[3],33.73%
same,HEMOGLOBIN,[3],13.37 G/DL
same,LEUKOCYTE COUNT,[3],13.9 x10E3/uL
same,LYMPHOCYTE,[3],94.67%
same,MEAN CORPUSCULAR HEMOGLOBIN,[3],25.43 pg
same,MEAN CORPUSCULAR HEMOGLOBIN CONCENTRATION,[3],39.67 G/DL
same,MEAN CORPUSCULAR VOLUME,[3],64.23 fL
same,MONOCYTE,[3],0%
same,NEUTROPHIL,[3],5%
same,NUCLEATED RED BLOOD CELLS,[3],0 /100WBC
same,PLATELET COUNT,[3],1085.33 x10E3/uL
same,ALANINE AMINOTRANSFERASE,[3],58.33 u/L
same,ALBUMIN,[3],4.1 G/DL
same,ALKALINE PHOSPHATASE,[3],341 u/L
same,ASPARTATE AMINOTRANSFERASE,[3],86.67 u/L
same,BLOOD UREA NITROGEN,[3],11.33 mg/dL
same,CARBON DIOXIDE,[3],27.67 mmol/L
same,CHLORIDE,[3],96.5 MEQ/L
same,CHOLESTEROL,[3],65.67 mg/dL
same,CREATINE PHOSPHOKINASE,[3],317.33 u/L
same,CREATININE,[3],0.21 mg/dL
same,GLUCOSE,[3],134 mg/dL
same,LACTATE DEHYDROGENASE,[3],126.67 u/L
same,LIPASE,[3],12.33 u/L
same,PHOSPHORUS,[3],10.53 mg/dL
same,POTASSIUM,[3],5.77 MEQ/L
same,SODIUM,[3],139.05 MEQ/L
same,TOTAL BILIRUBIN,[3],0.17 mg/dL
same,TOTAL PROTEIN,[3],5.33 G/DL
same,URIC ACID,[3],0.37 mg/dL
